In ChEMBL document CHEMBL2203030, “Synthesis, characterization, antidepressant and antioxidant activity of novel piperamides bearing piperidine and piperazine analogues” (Bioorg Med Chem Lett, 2012):
In brackets after ≈: the same amount, converted by molar mass.

Assays:
Assay type in all cases: functional
Aspergillus flavus [1] = experiment: Antimicrobial activity against Aspergillus flavus NCIM 524 at 100 ug/mL incubated for 48 hrs by agar disc diffusion method; details: NCIM 524, 48 h, read-out: IZ
Candida albicans [2] = experiment: Antimicrobial activity against Candida albicans NCIM 3471 by broth dilution method
Aspergillus flavus [3] = experiment: Antimicrobial activity against Aspergillus flavus NCIM 524 at 10 ug/disc incubated for 48 hrs by agar disc diffusion method; details: NCIM 524, 48 h
Candida albicans [4] = experiment: Antimicrobial activity against Candida albicans NCIM 3471 at 10 ug/disc incubated for 48 hrs by agar disc diffusion method; details: NCIM 3471, 48 h, read-out: IZ

`OC(Cn1cncn1)(Cn1cncn1)c1ccc(F)cc1F` [FLUCONAZOLE] showed a zone of inhibition at 100 µg/mL (Aspergillus flavus [1]) of 19 mm, an MIC (Candida albicans [2]) of 5 µg/mL (≈ 16.3 µM) and an MIC (Aspergillus flavus [3]) of 5 µg/mL (≈ 16.3 µM). It also gave a zone of inhibition at 10 µg/disc (Candida albicans [4]) of 16 mm.
